The target in assay [1] is Dipeptidyl peptidase 4 (Homo sapiens, UniProt P27487).
The target of assay [2] is Dipeptidyl peptidase 2 (Homo sapiens, UniProt Q9UHL4). The assay can be described thus: Inhibition of QPP.
The target in assay [3] is Dipeptidyl peptidase 9 (Homo sapiens, UniProt Q86TI2).
In assay [4] the target is Dipeptidyl peptidase 8 (Homo sapiens, UniProt Q6V1X1). The assay is described as follows: Inhibition of DPP8.

Some results are limits rather than exact numbers.

Dipeptidyl peptidase 4, sequence (P27487 whole entry): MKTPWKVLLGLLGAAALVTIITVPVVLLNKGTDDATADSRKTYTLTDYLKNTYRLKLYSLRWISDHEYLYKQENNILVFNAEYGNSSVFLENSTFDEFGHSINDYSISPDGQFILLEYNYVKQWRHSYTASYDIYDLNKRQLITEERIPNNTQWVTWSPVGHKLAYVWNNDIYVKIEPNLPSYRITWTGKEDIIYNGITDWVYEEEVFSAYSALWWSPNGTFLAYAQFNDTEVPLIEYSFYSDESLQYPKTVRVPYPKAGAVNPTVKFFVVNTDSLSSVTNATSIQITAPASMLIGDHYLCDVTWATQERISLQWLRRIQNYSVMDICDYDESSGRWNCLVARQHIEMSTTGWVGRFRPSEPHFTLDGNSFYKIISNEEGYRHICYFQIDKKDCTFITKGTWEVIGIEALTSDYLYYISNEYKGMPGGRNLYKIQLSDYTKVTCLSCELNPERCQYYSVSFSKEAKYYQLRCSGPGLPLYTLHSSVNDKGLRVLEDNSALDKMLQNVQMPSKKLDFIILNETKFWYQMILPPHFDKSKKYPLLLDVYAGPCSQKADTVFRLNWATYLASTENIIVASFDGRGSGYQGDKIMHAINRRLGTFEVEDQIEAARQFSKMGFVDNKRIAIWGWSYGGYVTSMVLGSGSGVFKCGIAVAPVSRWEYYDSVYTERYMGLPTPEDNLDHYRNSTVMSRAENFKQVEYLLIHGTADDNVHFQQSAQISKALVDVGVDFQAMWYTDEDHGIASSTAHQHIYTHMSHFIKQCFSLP
Dipeptidyl peptidase 9, sequence (Q86TI2 whole entry): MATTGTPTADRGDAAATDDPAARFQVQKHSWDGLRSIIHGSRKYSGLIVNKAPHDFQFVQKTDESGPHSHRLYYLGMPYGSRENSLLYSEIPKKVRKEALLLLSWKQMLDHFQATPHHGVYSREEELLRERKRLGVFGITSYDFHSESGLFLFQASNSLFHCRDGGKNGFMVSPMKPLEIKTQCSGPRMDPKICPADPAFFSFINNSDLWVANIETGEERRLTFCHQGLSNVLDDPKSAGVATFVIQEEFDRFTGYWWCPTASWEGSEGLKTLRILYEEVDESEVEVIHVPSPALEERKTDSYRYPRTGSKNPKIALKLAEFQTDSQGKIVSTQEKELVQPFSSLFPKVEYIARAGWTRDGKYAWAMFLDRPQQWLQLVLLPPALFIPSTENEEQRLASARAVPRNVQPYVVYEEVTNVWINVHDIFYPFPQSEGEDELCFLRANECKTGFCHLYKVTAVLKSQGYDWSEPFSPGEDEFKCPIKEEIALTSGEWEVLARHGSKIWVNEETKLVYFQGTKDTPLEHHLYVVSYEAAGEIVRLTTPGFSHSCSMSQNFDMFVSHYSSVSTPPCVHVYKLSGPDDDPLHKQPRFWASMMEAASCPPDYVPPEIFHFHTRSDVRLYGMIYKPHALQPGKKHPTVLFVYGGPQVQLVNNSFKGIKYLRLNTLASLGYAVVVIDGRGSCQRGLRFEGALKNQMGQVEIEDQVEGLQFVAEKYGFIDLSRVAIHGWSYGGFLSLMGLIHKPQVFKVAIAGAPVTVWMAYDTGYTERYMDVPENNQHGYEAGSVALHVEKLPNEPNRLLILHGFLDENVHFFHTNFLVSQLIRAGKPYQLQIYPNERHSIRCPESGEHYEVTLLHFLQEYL
Dipeptidyl peptidase 8, sequence (Q6V1X1 whole entry): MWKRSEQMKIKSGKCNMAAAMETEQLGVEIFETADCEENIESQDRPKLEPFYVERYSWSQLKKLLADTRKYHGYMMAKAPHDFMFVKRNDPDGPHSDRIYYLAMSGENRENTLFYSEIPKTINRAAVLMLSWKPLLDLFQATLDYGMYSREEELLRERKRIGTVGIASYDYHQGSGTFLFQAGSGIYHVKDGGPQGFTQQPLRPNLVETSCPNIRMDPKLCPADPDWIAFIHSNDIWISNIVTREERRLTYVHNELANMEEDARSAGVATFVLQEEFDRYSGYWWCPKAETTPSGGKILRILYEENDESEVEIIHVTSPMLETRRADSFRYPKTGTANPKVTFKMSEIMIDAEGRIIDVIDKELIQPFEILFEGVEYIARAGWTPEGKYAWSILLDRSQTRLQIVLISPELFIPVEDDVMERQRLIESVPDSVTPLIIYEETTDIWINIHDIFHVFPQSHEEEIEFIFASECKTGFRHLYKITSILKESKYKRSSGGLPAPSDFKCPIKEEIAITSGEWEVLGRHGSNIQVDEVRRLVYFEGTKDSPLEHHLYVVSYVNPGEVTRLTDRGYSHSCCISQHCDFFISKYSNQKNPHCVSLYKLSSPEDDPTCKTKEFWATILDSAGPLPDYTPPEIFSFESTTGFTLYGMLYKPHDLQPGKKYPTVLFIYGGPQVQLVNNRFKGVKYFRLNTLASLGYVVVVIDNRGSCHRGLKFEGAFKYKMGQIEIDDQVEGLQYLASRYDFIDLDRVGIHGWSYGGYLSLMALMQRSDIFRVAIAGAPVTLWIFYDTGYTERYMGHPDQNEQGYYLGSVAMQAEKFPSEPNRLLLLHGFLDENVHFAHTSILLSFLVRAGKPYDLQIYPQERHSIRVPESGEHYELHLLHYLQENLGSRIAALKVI

`N[C@H]1C[C@@H](N2Cc3cnc(C4CC4)nc3C2)CC[C@@H]1c1cc(F)c(F)cc1F`: the IC50 was 0.0053 µM in assay [1] and 61 µM in assay [2].
For the compound `N[C@H]1C[C@@H](N2CCn3c(nnc3C(F)(F)F)C2)CC[C@@H]1c1cc(F)c(F)cc1F`, the concentration for half-maximal inhibition (IC50) in assay [3], in assay [2] and in assay [4] was more than 100 µM throughout.
As for `N[C@H]1C[C@@H](N2Cc3ccccc3C2)CC[C@@H]1c1cc(F)c(F)cc1F`, the IC50 in assay [1] amounted to 0.0066 µM; in assay [2], 68 µM.
For `N[C@H]1C[C@@H](N2Cc3cncnc3C2)CC[C@@H]1c1cc(F)c(F)cc1F`, in that order: 0.00067 µM and more than 100 µM.

The record behind these values is ChEMBL document CHEMBL1148885, “Modeling assisted rational design of novel, potent, and selective pyrrolopyrimidine DPP-4 inhibitors” (Bioorg Med Chem Lett, 2007).
